By IC50 is commonly meant the point on the concentration scale where inhibition reaches its midpoint.

Each structure is given as a SMILES string.

For assay [1], the system named is HBV cccDNA (HBeAg level) in HepDES19 cells. In words: Engineered HepDES19 primary screen assay (HBeAg as surrogate marker for cccDNA). The conditions noted are these: Hepatitis B virus, HepDES19, 120 h. Format: cell-based. The text has this:
The assay was employed to screen for novel cccDNA inhibitors. HepDES19 is a cccDNA-producing cell line. In this cell line, HBeAg in the cell culture supernatant as surrogate marker, as HBeAg production depends on cccDNA level and activity. HepDES19 is an engineered cell line which contains a 1.1 unit length HBV genome, and pgRNA transcription from the transgene is controlled by Tetracycline (Tet). In the absence of Tet, pgRNA transcription will be induced, but HBV e antigen (HBeAg) could not be produced from this pgRNA due to very short leader sequence before the HBeAg start codon and the start codon is disrupted. Only after cccDNA is formed, the missing leader sequence and start codon mutation would be restored from the 3′-terminal redundancy of pgRNA, and then HBeAg could be synthesized. Therefore, HBeAg could be used as a surrogate marker for cccDNA (Zhou, T. et al., Antiviral Res. (2006), 72(2), 116-124; Guo, H. et al., J. Virol. (2007), 81(22), 12472-12484).
HepDES19 cells were seeded at 2×10^6 cells per T150 flask and cultured with the culture medium (Dulbecco's Modified Eagle Medium: Nutrient Mixture F-12 [DMEM-F12, Gibco Cat. 11320-82], 10% Fetal Bovine Serum [FBS, Clontech Cat. 631101], 0.1 mM Non-Essential Amino Acids Solution [NEAA, Gibco Cat. 11140-050], 50 μg/mL Penicillin-Streptomycin [PS, Invitrogen Cat. 15140-163], 500 μg/mL Geneticin [G418, Invitrogen Cat. 10131-027]) containing 3 μg/mL Tet (Sigma, Cat. 87128) for 5 days. Cells were then seeded at 4×10^6 cells per T150 in the same culture medium as described above in the absence of Tet for 8 days. Cells were then harvested and frozen at density of 2×10^6 cells per mL. For compound testing, the frozen cells were thawed and seeded into 96-well plates at a density of 6×10^4 cells per well. At 24 hours after seeding, half log serial dilutions of compounds made with Dimethyl sulfoxide (DMSO, Sigma, Cat. D2650) were further diluted with the same culture medium as described above before they were added to the cells to reach desired final compound concentrations and 1% DMSO concentration. Plates were then incubated at 37° C. for another 5 days before measurement of HBeAg level and cell viability. Intracellular HBeAg level were measured with enzyme-linked immunosorbent assay (ELISA) kit (Shanghai Kehua Diagnostic Medical Products Co., Ltd). Cell viability was assessed using Cell Counting Kit-8 (Donjindo, Cat. CK04-20). IC50 values were derived from the dose-response curve using 4 parameter logistic curve fit method.
The compounds of the present invention were tested for their capacity to inhibit extracellular HBeAg level as described herein.

In assay [2] the test system is HBV (extracellular HBsAg) in primary human hepatocytes. In words: Cryopreserved Primary Human Hepatocytes (PHH) HBV infection assay. The format is cell-based. The conditions noted are these: Hepatitis B virus, Hepatocyte, 216 h; extracellular HBsAg (CLIA), HBV-infected cryopreserved PHH, 9 days post-compound treatment. As for the experimental part: This assay is used to confirm the anti-HBV effect of the compounds in HBV PHH infection assay. Cryopreserved PHH (BioreclamationIVT, Lot YJM) was thawed at 37° C. and gently transferred into pre-warmed InVitroGRO HT medium (BioreclamationIVT, Cat. S03317).
The mixture was centrifuged at 70 relative centrifugal force (RCF) for 3 mins at RT, and the supernatant was discarded. Pre-warmed InVitroGRO CP medium (BioreclamationIVT, Cat #S03316) was added to the cell pellet to gently re-suspend cells. The cells were seeded at the density of 5.8×10^4 cells per well to collagen I coated 96-well plate (Gibco, Cat. A1142803) with the InVitroGRO CP medium. All plates were incubated at 37° C. with 5% CO2 and 85% humidity.
At 20 hours after plating, the medium was changed to PHH culture medium (Dulbecco's Modified Eagle Medium (DMEM)/F12 (1:1) (Gibco, Cat. 11320-033), 10% fetal bovine serum (Gibco Cat. 10099141), 100 U/mL penicillin, 100 μg/mL streptomycin (Gibco, Cat. 151401-122), […] (Invitrogen Cat. PHG0311L), 20 ng/mL dexamethasone (Sigma, Cat. D4902) and 250 ng/mL human recombinant insulin (Gibco, Cat. 12585-014)). And the cells were incubated at 37° C. with 5% CO2 and 85% humidity for 4 hours. The medium was then changed to pre-warmed PHH culture medium containing 4% polyethylene glycol (PEG) MW8000 (Sigma, Cat. P1458-50ML) and 1% DMSO (Sigma, Cat. D2650). 5.8×10^6 genomic equivalents of HBV were added into the medium.
At 24 hours post-infection, the cells were gently washed with PBS and refreshed with PHH culture medium supplemented with 1% DMSO, and 0.25 mg/mL Matrix gel (Corning, Cat. 356237) at 200 μL per well. All plates were immediately placed in at 37° C. CO2 incubator. 24 hours later, serial dilutions of compounds made with DMSO were further diluted with the same culture medium (PHH culture medium supplemented with 1% DMSO and 0.25 mg/mL Matrix gel as described above) before they were added to the cells to reach desired final compound concentrations and 1% DMSO concentration. The medium containing the compounds were refreshed every three days.
At 9 days post-compound treatment, extracellular HBsAg level were measured with Chemiluminescence Immuno Assay (CLIA) kit (Autobio, HBsAg Quantitative CLIA). Extracellular HBV DNA was extracted by MagNA Pure 96 system (Roche) and then determined by quantitative PCR with the following primers and probe: […]
HBsAg IC50 and HBV DNA IC50 values were derived from the dose-response curve using 4 parameter logistic curve fit method.

In the case of `O=C(c1cc(=O)c2cccc(Cl)c2o1)N1Cc2ccc(Br)cc2C1` [Example 4, 2-(5-bromoisoindoline-2-carbonyl)-8-chloro-chromen-4-one], the IC50 was 3.6 µM in assay [1] and 6.58 µM in assay [2].
Take `Cc1cc(Cl)ccc1NC(=O)c1oc2ccc(Cl)cc2c(=O)c1C` [Example 3, 6-chloro-N-(4-chloro-2-methylphenyl)-3-methyl-4-oxo-chromene-2-carboxamide]: the IC50 in assay [1] turned out to be 0.64 µM; in assay [2] it was 6.47 µM.
For `O=C(Nc1ccc(Cl)cc1OC1CC(C(=O)O)C1)c1cc(=O)c2cccc(Cl)c2o1` (stereo not drawn) [Example 7, 3-(5-chloro-2-(8-chloro-4-oxo-chromene-2-carboxamido)phenoxy)cyclobutane-1-carboxylic Acid] the same measures were 1.66 µM and 10 µM.
`Cc1cc(OCCOCC(=O)O)ccc1NC(=O)c1cc(=O)c2cccc(Cl)c2o1` [Example 19, 2-(2-(4-(8-chloro-4-oxo-chromene-2-carboxamido)-3-methylphenoxy)ethoxy)acetic Acid]: the IC50 in assay [2] stood at 31.6 µM.
Same read-out and setting: the value for `COc1ccc2c(c1)CCN(C(=O)c1cc(=O)c3cccc(Cl)c3o1)C2` [Example 14, 8-Chloro-2-(6-methoxy-3,4-dihydro-1H-isoquinoline-2-carbonyl)chromen-4-one] was 36.3 µM; that for `Cc1cc(Cl)ccc1NC(=O)c1cc(=O)c2cc(Cl)cc(Cl)c2o1` [Example 13, 6,8-dichloro-N-(4-chloro-2-methylphenyl)-4-oxo-chromene-2-carboxamide] was 36.3 µM.

For the origin of these results see patent US11993591B2, “Chromen-4-one derivatives for the treatment and prophylaxis of hepatitis B virus disease” (Hoffmann-La Roche Inc., priority 2018, dated 2024).
